Test results reported in ChEMBL document CHEMBL1201862, “PubChem BioAssay data set” (2004).
Active and inactive are the calls of the source.

Key:
[1] = molecular target: T1, Endoribonuclease toxin MazF (Escherichia coli K-12, UniProt P0AE70); test: activation of MazEF endoribonuclease cleavage – biochemical, fluorescence, single-stranded RNA substrate, uHTS hits, dose response (AID 588481); assay type: functional
T1 sequence (P0AE70 whole entry): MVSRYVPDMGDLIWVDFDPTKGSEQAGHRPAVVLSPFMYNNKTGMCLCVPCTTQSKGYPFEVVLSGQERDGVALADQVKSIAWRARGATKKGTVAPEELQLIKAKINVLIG

[2] = molecular target: T1, Endoribonuclease toxin MazF; test: substrate-only fluorescence increase artefacts – biochemical, single-stranded RNase substrate, counter-screen for MazEF activator project, dose response (AID 588502); assay type: functional
[3] = system: Streptococcus; test: GAS UMAA2166 growth inhibition – luminescence, BacTiterGlo, counter-screen for streptokinase expression inhibitor project, dose response (AID 1915); assay type: functional, organism-based;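 note: potency for reduction of bacterial viability or growth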
[4] = system: H9c2; test: cells; assay type: functional, cell-based; conditions: Rattus norvegicus, H9c2, Myocardium;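 note: confirmatory concentration-response retest of ultra-high-throughput screening hits for modulation of myocardial damage; cell death induced by hydrogen peroxide oxidative stress; compound pretreatment for 60 min then peroxide exposure for 2 h; potency is for protecting the cells against peroxide damage rather than for killing them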
[5] = system: Streptococcus sp. 'group A'; test: Streptococcus pyogenes SK(-)GAS viability under kanamycin – luminescence, BacTiterGlo, confirmation, counter-screen for streptokinase expression inhibitor project, dose response (AID 1900); assay type: functional, organism-based
[6] = reduction of Shn3 3'UTR-driven luciferase in osteoblasts – cell-based, Clone20 osteoblasts, firefly luciferase, cherry-picked, dose response (AID 624132); assay type: functional;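 note: firefly luciferase luminescence from reporter carrying the Shn3 3'UTR in osteoblasts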
[7] = NIH3T3 cell viability loss – ATP luminescence, mouse fibroblasts, counter-screen, dose response (AID 2010); assay type: functional, cell-based;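 note: cells exposed to compound for about 90 hours before reading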
[8] = loss of viability in HepG2 cells – cell-based, CellTiter-Glo, cherry-picked, cytotoxicity control for Shn3 inhibitor project, dose response (AID 624134); assay type: functional
[9] = Trypanosoma cruzi growth suppression in host cells – NIH3T3 host cells, beta-gal luminescence, confirmation (AID 2044); assay type: functional, cell-based;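 note: intracellular parasites grown in NIH/3T3 mouse fibroblasts as host cells; luminescent beta-galactosidase reporter signal from transgenic T. cruzi replicating inside host cells; inhibitors lower the luminescence signal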
[10] = system: HEK293; test: EBV LMP1 TES2 canonical NF-kB signalling blockers – cell-based, HEK293, luciferase, cherry-pick, dose response (AID 588343); assay type: functional; conditions: Homo sapiens
[11] = non-specific 3'UTR reporter inhibition in Clone20-Shn3RL – cell-based, Renilla luciferase, cherry-picked, counter-screen for Shn3 inhibitor project, dose response (AID 624133); assay type: functional
[12] = system: Cryptococcus neoformans; test: PubChem AID 686997; assay type: functional, organism-based; conditions: Cryptococcus neoformans
[13] = molecular target: T2, Adenosylmethionine-8-amino-7-oxononanoate aminotransferase (Mycobacterium tuberculosis, UniProt P9WQ81); test: Mycobacterium tuberculosis BioA enzyme inhibitor Measured in Biochemical System Using Plate Reader - 2163-02_Inhibitor_Dose_CherryPick_Activity.; assay type: functional, Mycobacterium tuberculosis UT205
T2 sequence (P9WQ81 whole entry): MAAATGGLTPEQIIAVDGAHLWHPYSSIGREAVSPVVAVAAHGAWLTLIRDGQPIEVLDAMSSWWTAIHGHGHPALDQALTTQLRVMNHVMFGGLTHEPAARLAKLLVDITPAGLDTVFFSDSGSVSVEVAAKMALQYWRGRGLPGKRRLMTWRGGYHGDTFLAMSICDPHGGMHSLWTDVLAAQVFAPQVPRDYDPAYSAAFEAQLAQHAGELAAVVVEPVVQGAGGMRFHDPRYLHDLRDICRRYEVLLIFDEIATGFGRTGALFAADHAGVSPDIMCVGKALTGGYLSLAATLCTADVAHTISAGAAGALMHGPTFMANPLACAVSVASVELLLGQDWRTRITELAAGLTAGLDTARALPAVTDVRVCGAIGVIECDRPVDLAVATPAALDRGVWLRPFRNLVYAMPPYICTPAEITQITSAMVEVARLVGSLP

[14] = system: Vero; test: cells; assay type: functional; conditions: Chlorocebus sabaeus
[15] = molecular target: Cytochrome P450 2C9 (Homo sapiens, UniProt P11712)
Cytochrome P450 2C9, sequence (P11712 whole entry): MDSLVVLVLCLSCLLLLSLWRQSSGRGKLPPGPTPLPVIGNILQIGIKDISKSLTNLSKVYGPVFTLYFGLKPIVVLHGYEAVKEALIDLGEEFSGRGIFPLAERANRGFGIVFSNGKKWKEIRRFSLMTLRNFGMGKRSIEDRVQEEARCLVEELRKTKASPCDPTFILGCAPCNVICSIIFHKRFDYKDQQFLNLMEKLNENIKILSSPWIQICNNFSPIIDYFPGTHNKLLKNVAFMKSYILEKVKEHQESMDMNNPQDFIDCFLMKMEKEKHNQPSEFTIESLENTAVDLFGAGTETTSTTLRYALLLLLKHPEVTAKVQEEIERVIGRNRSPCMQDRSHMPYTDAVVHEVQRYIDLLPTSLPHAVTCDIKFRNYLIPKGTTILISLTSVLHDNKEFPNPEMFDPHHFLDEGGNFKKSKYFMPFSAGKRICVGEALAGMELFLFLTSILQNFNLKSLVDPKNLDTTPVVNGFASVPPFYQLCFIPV

[16] = molecular target: T3, Cytochrome P450 1A2 (Homo sapiens, UniProt P05177);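 note: PubChem cytochrome P450 panel assay, CYP1A2 panel member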
T3 sequence (P05177 whole entry): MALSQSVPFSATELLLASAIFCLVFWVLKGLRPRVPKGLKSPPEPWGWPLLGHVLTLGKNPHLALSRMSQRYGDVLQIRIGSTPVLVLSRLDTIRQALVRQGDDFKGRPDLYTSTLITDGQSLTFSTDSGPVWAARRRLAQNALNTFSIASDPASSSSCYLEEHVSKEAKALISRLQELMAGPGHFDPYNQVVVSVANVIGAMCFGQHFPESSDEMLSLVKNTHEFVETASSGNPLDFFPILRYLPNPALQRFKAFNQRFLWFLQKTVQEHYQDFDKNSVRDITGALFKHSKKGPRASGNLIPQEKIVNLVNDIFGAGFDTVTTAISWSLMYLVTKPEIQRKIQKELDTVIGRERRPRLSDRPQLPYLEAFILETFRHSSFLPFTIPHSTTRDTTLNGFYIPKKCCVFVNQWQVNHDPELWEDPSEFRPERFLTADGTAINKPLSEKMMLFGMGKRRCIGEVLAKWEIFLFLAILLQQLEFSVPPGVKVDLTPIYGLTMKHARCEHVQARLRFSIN

[17] = HEK-293T viability loss, compound-treated – cell-based, uHTS hits, cytotoxicity control for B/T-cell NF-kB inhibitor project, dose response (AID 489019); assay type: functional;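 note: IC50 reflects cytotoxicity as loss of cell viability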
[18] = system: Jurkat; test: blockers of NF-kB activation in T cells – Jurkat, luciferase reporter, luminescence, B- and T-cell, dose response (AID 489004); assay type: functional, cell-based; conditions: Homo sapiens;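 note: NF-kB luciferase reporter Jurkat cells stimulated with PMA plus ionomycin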
[19] = molecular target: Glucose-6-phosphate 1-dehydrogenase (Homo sapiens, UniProt P11413); test: inhibition of Homo sapiens G6PD, dose series – biochemical, fluorescence, selectivity assay for P. falciparum G6PD inhibitor project, dose response (AID 504792); assay type: functional
Glucose-6-phosphate 1-dehydrogenase, sequence (P11413 whole entry): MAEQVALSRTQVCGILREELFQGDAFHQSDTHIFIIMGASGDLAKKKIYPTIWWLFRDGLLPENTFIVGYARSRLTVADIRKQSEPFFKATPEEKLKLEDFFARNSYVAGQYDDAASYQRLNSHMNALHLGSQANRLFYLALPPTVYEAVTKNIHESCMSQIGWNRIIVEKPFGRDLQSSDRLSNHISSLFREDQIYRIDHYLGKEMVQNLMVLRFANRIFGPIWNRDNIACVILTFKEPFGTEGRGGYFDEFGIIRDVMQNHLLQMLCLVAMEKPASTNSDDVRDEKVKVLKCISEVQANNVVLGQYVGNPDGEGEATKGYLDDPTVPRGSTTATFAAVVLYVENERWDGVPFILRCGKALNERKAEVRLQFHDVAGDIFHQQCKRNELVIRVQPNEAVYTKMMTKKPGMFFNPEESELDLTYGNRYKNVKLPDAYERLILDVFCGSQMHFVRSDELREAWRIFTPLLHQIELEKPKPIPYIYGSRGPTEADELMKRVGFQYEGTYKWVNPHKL

[20] = Luminescence Cell-Based Dose Retest to Confirm Inhibitors of Cancer Stem Cells. [Related pubchem assays (depositor defined):AID2717, AID2721]; assay type: functional; conditions: Homo sapiens
[21] = T. cruzi growth inhibition in host cells, dose response, cell-based, plate reader, dry powder, set 2 (AID 652275); assay type: functional
[22] = HIV-1 AD8 envelope cell-cell fusion blockers – cherry-pick, dose response (AID 652062); assay type: functional, cell-based;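 note: luciferase signal from cell-cell fusion driven by HIV-1 clade B AD8 Env; potency is for inhibitors of fusion seen as a drop in luminescence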
[23] = blockers of HIV-1 envelope-mediated cell-cell fusion – cherry-pick, dose response (AID 652057); assay type: functional, cell-based
[24] = system: INS1; test: INS-1E survival protection against cytokine death – cell-based, luminescence, retest, dose response (AID 449756); assay type: functional; conditions: Rattus norvegicus;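 note: cell death triggered by IL-1 beta plus TNF-alpha plus IFN-gamma mixture; protective hits raise ATP signal compared with cytokine alone wells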
[25] = viability loss in CEM21 cells – cell-based, CellTiter-Glo luminescence, cherry-picked, cytotoxicity control for viral fusion inhibitor project, dose response (AID 652042); assay type: functional;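 note: potency for signal decrease meaning cytotoxicity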
[26] = molecular target: T4, Protein RecA (Mycobacterium tuberculosis, UniProt P9WHJ3); test: Fluorescence Cell-Free Homogeneous Dose Retest to Identify Inhibitors of RecA-Intein Splicing Activity. [Related pubchem assays (depositor defined):AID2097, AID2223, AID489010, AID492950]; assay type: functional
T4 sequence (P9WHJ3 whole entry): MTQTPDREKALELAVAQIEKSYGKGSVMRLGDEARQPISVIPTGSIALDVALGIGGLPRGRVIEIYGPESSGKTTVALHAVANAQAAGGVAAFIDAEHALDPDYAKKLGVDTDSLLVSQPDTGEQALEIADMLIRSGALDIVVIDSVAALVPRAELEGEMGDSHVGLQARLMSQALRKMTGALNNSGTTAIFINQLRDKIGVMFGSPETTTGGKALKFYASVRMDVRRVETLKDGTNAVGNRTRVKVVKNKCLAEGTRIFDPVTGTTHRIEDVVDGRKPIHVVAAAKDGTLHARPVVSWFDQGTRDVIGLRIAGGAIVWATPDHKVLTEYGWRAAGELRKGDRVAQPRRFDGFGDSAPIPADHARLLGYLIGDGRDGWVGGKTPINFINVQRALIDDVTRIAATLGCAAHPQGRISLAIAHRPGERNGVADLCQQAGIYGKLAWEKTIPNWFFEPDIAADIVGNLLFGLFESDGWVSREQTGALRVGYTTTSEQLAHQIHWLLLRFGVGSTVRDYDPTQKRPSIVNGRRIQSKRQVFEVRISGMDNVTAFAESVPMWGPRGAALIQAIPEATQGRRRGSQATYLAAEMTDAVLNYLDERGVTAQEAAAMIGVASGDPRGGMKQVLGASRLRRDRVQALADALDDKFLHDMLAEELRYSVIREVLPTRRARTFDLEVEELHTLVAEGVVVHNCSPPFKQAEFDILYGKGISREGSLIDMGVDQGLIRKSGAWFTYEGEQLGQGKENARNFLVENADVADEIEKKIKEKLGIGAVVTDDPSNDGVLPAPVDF

[27] = molecular target: T5, Replicative DNA helicase DnaB (Mycobacterium tuberculosis, UniProt P9WMR3); test: DnaB intein splicing inhibitors, dose response, biochemical, cell-free fluorescence (AID 449749); assay type: functional
T5 sequence (P9WMR3 whole entry): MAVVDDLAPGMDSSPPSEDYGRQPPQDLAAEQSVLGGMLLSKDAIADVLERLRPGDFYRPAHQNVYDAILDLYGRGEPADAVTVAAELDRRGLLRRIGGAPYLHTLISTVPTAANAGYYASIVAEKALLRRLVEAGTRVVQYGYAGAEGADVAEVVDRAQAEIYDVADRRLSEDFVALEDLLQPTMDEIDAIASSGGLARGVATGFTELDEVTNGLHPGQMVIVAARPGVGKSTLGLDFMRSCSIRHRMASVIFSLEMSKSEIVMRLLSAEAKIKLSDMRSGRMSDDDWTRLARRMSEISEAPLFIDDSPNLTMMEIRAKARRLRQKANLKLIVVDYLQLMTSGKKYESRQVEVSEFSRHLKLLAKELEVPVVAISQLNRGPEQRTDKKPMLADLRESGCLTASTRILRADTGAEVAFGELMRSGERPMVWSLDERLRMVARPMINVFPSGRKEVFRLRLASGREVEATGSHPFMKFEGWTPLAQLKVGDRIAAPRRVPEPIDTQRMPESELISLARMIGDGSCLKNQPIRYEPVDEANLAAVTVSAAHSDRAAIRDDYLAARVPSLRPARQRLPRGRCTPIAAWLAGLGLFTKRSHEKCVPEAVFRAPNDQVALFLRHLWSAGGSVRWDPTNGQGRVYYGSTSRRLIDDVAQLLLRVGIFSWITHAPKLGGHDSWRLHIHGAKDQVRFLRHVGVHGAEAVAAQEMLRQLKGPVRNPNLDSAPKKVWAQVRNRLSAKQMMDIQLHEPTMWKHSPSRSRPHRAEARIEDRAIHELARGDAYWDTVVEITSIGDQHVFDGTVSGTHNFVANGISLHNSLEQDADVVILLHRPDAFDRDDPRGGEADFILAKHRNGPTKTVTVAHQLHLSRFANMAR

Cc1ccc(C)c(Nc2nc3c(S(=O)(=O)c4ccccc4)nnn3c3ccccc23)c1
EC50 [1]: > 99 µM (inactive)
EC50 [2]: > 99 µM (inactive)

CCCN(CCC)S(=O)(=O)c1ccc(C(=O)Nc2nnc(-c3cc(OC)cc(OC)c3)o2)cc1
EC50 [3]: 0.43 µM (active)
IC50 [4]: > 79 µM (inactive)
EC50 [5]: 0.12 µM (active)
AC50 [6]: 2.64 µM (active)
EC50 [7]: 3.92 µM (active)
AC50 [8]: 1.33 µM (active)
EC50 [9]: 0.965 µM (active)
AC50 [10]: 2.51 µM (active)
AC50 [11]: 3.45 µM (active)

COc1cccc(NC(=S)N2CCC(Cc3ccccc3)CC2)c1
AC50 [12]: 36.8 µM (active)

CN1/C(=C/C(=O)c2ccc(Cl)cc2)Sc2cc3c(cc21)OCO3
EC50 [1]: > 99 µM (inactive)
EC50 [2]: 62.3 µM (inactive)

Nc1nc(N)c2cc(S(=O)(=O)c3ccc4ccccc4c3)ccc2n1
EC50 [1]: > 99 µM (inactive)
AC50 [6]: 3.37 µM (active)
AC50 [8]: 2.82 µM (active)
EC50 [2]: > 99 µM (inactive)

CCCCN1C(=O)c2ccc(C(=O)Nc3cccnc3)cc2C1=O
AC50 [13]: 0.544 µM (active)

CCN(CC)CCCN(C(=O)c1ccccc1F)c1nc(-c2ccc(OC)cc2)cs1
CC50 [14]: 17.6 µM (active)

Cc1cc([N+](=O)[O-])nn1Cc1ccccc1F
AC50 [15]: inconclusive
AC50 [16]: 22.4 µM (inconclusive)
IC50 [17]: > 80 µM (inactive)
IC50 [18]: > 80 µM (inactive)

C=CCSC1=N/C(=C\c2cc(OC)c3c(c2)OCO3)C(=O)S1
EC50 [1]: 20.7 µM (inactive)
EC50 [2]: 64.5 µM (inactive)

O=C1C(c2cc(O)c3ccccc3n2)=C(O)c2ccccc21
IC50 [19]: 53.4 µM (inactive)

Clc1ccc(CSc2nnc(-c3cccnc3)o2)cc1
AC50 [13]: 4.13 µM (active)

CC(=O)O[C@H]1[C@H]2O[C@]23[C@@H]2CC[C@]4(O)C[C@@H](O)CC[C@]4(C)[C@H]2CC[C@]3(C)[C@H]1c1ccc(=O)oc1 [CINOBUFOTALIN]
AC50 [20]: < 0.16 µM (active)
IC50 [17]: > 80 µM (inactive)
IC50 [18]: 3.19 µM (active)

O=C(Nc1ccc(F)c(Cl)c1)C1CCCN(c2cnccn2)C1 (configuration not stated)
AC50 [13]: 3.25 µM (active)
EC50 [7]: > 60 µM (not active)
EC50 [9]: 0.39 µM (active)

CCCN(CCC)c1[nH]cnc2ncnc1-2
AC50 [10]: 21.2 µM (active)

COc1ccccc1CN(C)C[C@H]1Oc2c(NC(=O)c3ccncc3)cccc2C(=O)N([C@@H](C)CO)C[C@@H]1C
AC50 [21]: 0.078 µM (active)

COc1cc(NCCCn2cnc3c(OCc4ccccc4)ncnc32)cc(OC)c1OC
IC50 [19]: > 80 µM (inactive)

O=C(OCCOc1cccc(Cl)c1)c1cc(S(=O)(=O)N2CCCCC2)ccc1N1CCOCC1
AC50 [22]: 22.1 µM (active)
AC50 [23]: 48.3 µM (active)
EC50 [7]: > 30 µM (not active)
AC50 [24]: 4.81 µM (active)
EC50 [9]: 3.05 µM (active)
AC50 [25]: 52.3 µM (active)

COc1ccc(CCc2cc(OC)c(OC)c(OC)c2)cc1
CC50 [14]: 1.66 µM (active)

Cc1ccccc1N(Cc1cc(O)nc2ccccc12)C(=O)CCl
EC50 [26]: 6.26 µM (active)
CC50 [14]: 17.5 µM (active)
AC50 [27]: 50.5 µM (active)
